Measured values: patent US20240101542A1, “ERAP INHIBITORS” (UNIVERSITE DE LILLE, priority 2020, published 2024)

Experiments:
ERAP2 = ERAP2 (Homo sapiens (Human), UniProt Q6P179); assay: In vitro ERAP activity assay, ERAP2 with R-AMC substrate; assay type: biochemical; design: IC50 on ERAP2 using R-AMC as substrate: scale not given here; conditions: R-AMC as substrate; for IC50: read-out: IC50 on ERAP2 using R-AMC as substrate
Procedure: (§1) The enzymatic activity of ERAP1 or 2 was assayed using L-AMC (L-Leucine-7-amido-4-methylcoumarin hydrochloride) or R-AMC (L-Arginine-7-amido-4-methylcoumarin hydrochloride) respectively. Hepes at 50 mM with 100 mM NaCl at pH 7 was used as buffer. Briefly, 60 nL of test compounds were added in 384-wells plates (dark, non-binding surface) by acoustic dispensing with nanoacoustic dispenser Echo (Labcyte) and pre-incubated 30 minutes at ambient temperature with 10 μL of ERAP 0.8 μg/mL or 1 μg/mL or vehicle. The reaction was then started with the addition of 10 μL of substrate at 10 μM. The final concentration of ERAP, substrate and DMSO was 0.5 μg/mL, 5 μM and 0.4% respectively. For the kinetic readout a Victor 3V (Perkin-Elmer) was used with excitation at 380 nm and emission at 450 nm. The fluorescence was measured each 3 minutes during one hour.
(§2) The Z and Z′ factors were calculated according to J.-H. Zhang, T. D. Y. Chung, K. R. Oldenburg, A Simple Statistical Parameter for Use in Evaluation and Validation of High Throughput Screening Assays, J. Biomol. Screen., 4 (1999) 67-73. Data analysis was performed using Xlfit® v 5.0 or GraphPad Prism® v 4.0.
(§3) Percentages of inhibition at different concentrations were obtained as described above and IC50s were carried out as 8-point dose response curves and reported as the average of at least three independent measurements. […] Data analysis was performed using Xlfit® v 5.0 or GraphPad Prism® v 4.0. Nonlinear curve fitting and statistical analysis was done using built-in functions.

ERAP1 = ERAP1 (Homo sapiens (Human), UniProt Q9NZ08); assay: In vitro ERAP activity assay, ERAP1 with L-AMC substrate; assay type: biochemical; conditions: L-AMC as substrate; read-out: IC50 on ERAP1 or ERAAP using L-AMC as substrate
Procedure: as §1, §2, §3

ERAP2, sequence (Q6P179 whole entry): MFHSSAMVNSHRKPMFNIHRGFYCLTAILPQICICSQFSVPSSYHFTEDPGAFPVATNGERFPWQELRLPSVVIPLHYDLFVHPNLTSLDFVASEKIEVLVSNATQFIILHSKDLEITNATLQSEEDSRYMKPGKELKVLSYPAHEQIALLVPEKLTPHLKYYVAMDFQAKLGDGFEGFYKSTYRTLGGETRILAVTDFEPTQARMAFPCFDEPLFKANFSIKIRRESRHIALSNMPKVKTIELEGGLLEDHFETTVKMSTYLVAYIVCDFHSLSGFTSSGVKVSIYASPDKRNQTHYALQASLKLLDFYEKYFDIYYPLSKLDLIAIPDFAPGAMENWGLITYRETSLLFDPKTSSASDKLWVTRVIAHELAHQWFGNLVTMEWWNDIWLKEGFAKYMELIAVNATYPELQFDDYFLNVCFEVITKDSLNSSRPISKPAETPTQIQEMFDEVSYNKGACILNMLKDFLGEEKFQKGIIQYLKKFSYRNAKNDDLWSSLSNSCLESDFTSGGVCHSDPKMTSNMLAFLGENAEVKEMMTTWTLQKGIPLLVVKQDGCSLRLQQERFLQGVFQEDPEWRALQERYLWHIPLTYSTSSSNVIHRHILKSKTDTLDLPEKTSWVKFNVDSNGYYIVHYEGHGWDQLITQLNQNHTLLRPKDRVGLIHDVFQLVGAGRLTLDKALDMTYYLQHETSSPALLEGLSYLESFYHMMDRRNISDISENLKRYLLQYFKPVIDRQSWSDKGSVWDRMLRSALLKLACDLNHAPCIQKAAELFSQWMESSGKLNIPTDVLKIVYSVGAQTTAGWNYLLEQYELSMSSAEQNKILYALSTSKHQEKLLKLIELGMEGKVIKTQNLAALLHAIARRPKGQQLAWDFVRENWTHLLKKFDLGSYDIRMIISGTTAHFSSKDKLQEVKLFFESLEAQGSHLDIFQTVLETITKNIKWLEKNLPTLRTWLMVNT
ERAP1, sequence (Q9NZ08 whole entry): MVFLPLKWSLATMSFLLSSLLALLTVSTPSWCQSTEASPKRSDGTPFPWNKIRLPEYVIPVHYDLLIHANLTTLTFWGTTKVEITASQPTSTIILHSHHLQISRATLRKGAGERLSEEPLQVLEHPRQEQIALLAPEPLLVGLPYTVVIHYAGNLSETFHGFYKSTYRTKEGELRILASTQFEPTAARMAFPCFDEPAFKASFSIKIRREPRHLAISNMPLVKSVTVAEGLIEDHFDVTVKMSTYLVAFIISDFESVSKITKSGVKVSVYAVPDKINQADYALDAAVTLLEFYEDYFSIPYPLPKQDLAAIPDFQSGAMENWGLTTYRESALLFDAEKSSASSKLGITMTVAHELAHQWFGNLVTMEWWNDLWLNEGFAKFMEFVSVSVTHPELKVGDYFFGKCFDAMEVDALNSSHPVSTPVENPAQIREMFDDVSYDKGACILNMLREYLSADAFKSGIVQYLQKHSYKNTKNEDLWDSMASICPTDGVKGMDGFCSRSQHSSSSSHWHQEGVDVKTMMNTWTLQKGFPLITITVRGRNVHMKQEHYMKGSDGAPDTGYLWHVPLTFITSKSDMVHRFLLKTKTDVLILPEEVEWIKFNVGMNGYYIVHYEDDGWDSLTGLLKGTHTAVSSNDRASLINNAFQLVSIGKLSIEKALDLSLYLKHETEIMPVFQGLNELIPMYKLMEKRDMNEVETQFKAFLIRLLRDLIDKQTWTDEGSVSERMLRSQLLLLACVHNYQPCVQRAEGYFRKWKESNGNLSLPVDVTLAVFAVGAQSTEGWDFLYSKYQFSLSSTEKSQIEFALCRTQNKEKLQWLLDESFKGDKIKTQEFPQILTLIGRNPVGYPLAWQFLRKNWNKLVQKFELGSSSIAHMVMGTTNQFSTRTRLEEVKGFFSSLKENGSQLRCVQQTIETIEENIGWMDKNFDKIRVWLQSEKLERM

Row | Compound | IC50 (ERAP2) | IC50 (ERAP1) | IC50 on ERAP2 using R-AMC as substrate (ERAP2)
1 | O=C(NO)[C@H](Cc1ccc(O)cc1)n1cc(CNS(=O)(=O)c2ccsc2)nn1 [Compound 17] | – | > 5 µM | + +
2 | O=C(NO)[C@H](Cc1ccc(O)c(F)c1)n1cc(CNS(=O)(=O)c2ccc(-c3ccccn3)s2)nn1 [Compound 44] | < 0.5 µM | > 5 µM | –
3 | CNC(=O)c1cccc(-c2ccc(S(=O)(=O)NCc3cn([C@@H](Cc4ccc(OC)cc4)C(=O)NO)nn3)s2)c1 [Compound 43] | < 0.5 µM | > 5 µM | –
4 | CN(Cc1cn([C@@H](Cc2ccc(O)cc2)C(=O)NO)nn1)S(=O)(=O)c1ccc(-c2ccccc2)s1 [Compound 13] | – | > 5 µM | + +

Now from value to compound:

Row | IC50 (ERAP2) | IC50 (ERAP1) | IC50 on ERAP2 using R-AMC as substrate (ERAP2) | Compound
5 | < 0.5 µM | > 5 µM | – | O=C(NO)[C@H](Cc1ccc(O)c(F)c1)n1cc(CNS(=O)(=O)c2ccc(-c3ccccc3)s2)nn1 [Compound 45]
6 | > 5 µM | < 5 µM | – | COc1ccc(C[C@@H](C(=O)NO)n2cc(C3CCCCN3S(=O)(=O)c3ccc(-c4ccccc4)s3)nn2)cc1 (stereo partly drawn) [Compound 58]
